Experimental data from patent US5459142A, “Pyrazinyl and piperazinyl substituted pyrazine compounds” (Otsuka Pharmaceutical Co., Ltd., priority 1991, dated 1995).
In brackets after ≈: the same amount, converted by molar mass.

Legend:
[1] = tested on: superoxide radicals (O2^-) released from peritoneal macrophage cells of guinea pig; experiment: Inhibitory effect against superoxide radicals released from peritoneal macrophage cells of guinea pig by stimulation (FMLP), cytochrome C reduction; assay type: cell-based; settings: Cavia porcellus, Peritoneal macrophage cell; guinea pig peritoneal macrophages 2×10^6 cells/ml; FMLP 10^-7 M; 37° C.; OD550; read-out: IC50 (superoxide radical release)
Method: Inhibitory effect against superoxide radicals released from the peritoneal macrophage cells of guinea pig by stimulation:
Mineral oil (15 ml) was intraperitoneally administered to a guinea pig, then 96 hours after the administration, the peritoneal macrophage cells were sampled.
Superoxide radicals (O2^-) were determined by means of reduction of cytochrome C method according to the procedure described in an article written by T. Matsumoto, K. Takeshige and S. Minakami: Biochemical and Biophysical Research Communications, Vol. 88, No. 3, pp. 974-979, (1979).
The peritoneal macrophage cells were added to make the final concentration of 2×10^6 cells/ml into ml of 80 μM-cytochrome C solution, and the test compound of pyrazine derivative of the present invention was added thereto to make the test group sample. On the other hand, water was added in place of the test compound of the present invention to make the control group sample. Each of the test group sample and the control group sample was subjected to pre-incubation at 37° C. for 1 minute.
As to the stimulating agent for releasing superoxide radicals (O2^-), FMLP (formylmethionyl leucyl phenylalanine) was added to make the final concentration thereof to 10^-7 M, to each of the test group sample and the control group sample. Then both samples were subjected to additional reaction by incubation for 1 minute.
Difference of the optical absorbances measured at 550 nm (OD550) of both test group and control group samples were determined, and the 50% inhibitory concentration (IC50) was obtained by calculating as the ratio of OD550 of the test group sample to that of the control group sample.

[2] = tested on: releasing of lysosome from the neutrocytes of rat; experiment: Inhibitory effect against the releasing of lysosome from the neutrocytes of rat; assay type: cell-based; settings: rat neutrocytes 5×10^5 cells/ml; 10^-6 M FMLP and 5 μg/ml cytochalasin B; OD540
Method: Inhibitory effect against the releasing of lysosome from the neutrocytes of rat
The neutrocytes of rat were sampled from the abdominal cavity of the rat 16 hours after the administration of 10 ml of 1%-casein solution (physiological saline solution).
Reaction of the releasing of lysosome from the neutrocytes of rat was determined by means of the method as described in an article written by T. Matsumoto, K. Takeshige and S. Minakami: Biochemical and Biophysical Research Communications, Vol. 88, No. 3, pp. 974-979, (1979).
The neutrocytes being sampled were added to Hank's solution so as to make the concentration thereof as 5×10^5 cells/ml, and the test compound of pyrazine derivative of the present invention was added thereto to make the test group sample. On the other hand, water as added in place of the pyrazine derivative of the present invention to make the control group sample. Each of the test group sample and the control group sample was subjected to pre-incubation at 37° C. for 1 minute.
As to the stimulating agents, 10^-6 M of FMLP (formylmethionyl leucyl phenylalanine) and 5 μg/ml of cytochalasin B were added to the solution. […] After the reaction, 1N-NaOH solution was added to the reaction mixture so as to make the pH value thereof to pH 8 to 9, and the optical absorbance of both test group samples and control group samples were determined at 540 nm (OD540). […]

[3] = tested on: releasing of hydrogen peroxide (H2O2) from the neutrocytes of rat abdominal cavity; experiment: Inhibitory effect against the releasing of hydrogen peroxide (H2O2) from the neutrocytes of rat abdominal cavity; assay type: cell-based, SD-strain rat; settings: rat neutrocytes 10^6 cells/ml; FMLP 2×10^-6 M; 37° C., 1 hour; OD510
Method: Inhibitory effect against the releasing of hydrogen peroxide (H2 O2) from the neutrocytes of rat abdominal cavity
1) 1%-Casein solution was administered to the adbominal cavity of a SD-strain rat, then 16 hours after the administration, the neutrocytes were obtained by washing the abdominal cavity. Thus obtained neutrocytes were washed with Hank's solution.
2) The formulation of the reaction mixture(*) was as follows: […]
______________________________________
Rat neutrocytes 10^6 cells/ml
Text compound was added to the reaction mixture, then the whole mixture was incubated at 37° C. for 1 hour.
3) Next, the reacted mixture was subjected to centrifugal separation at 2,000 rpm for 10 minutes, then ml of the supernatant liquor was taken as a sample and microliters of 1N-NaOH solution was added thereto.
4) The optical absorbance at 510 nm (OD510) was determined by means of using a spectrophotometer. The 50% inhibitory concentration was obtained by calculating as the ratio of OD510 of the test group sample to that of the control group sample.

SMILES: COc1cccc(CNC(=O)c2[nH]c(=O)c(CC(C)C)[n+]([O-])c2OC)c1 [Test compound 1, 3-Isobutyl-5-methoxy-6-[N-(3-methoxybenzyl)]-carbamoyl-1,2-dihydropyrazin-2-one 4-oxide]
- IC50 [1]: 30 µg/mL (≈ 83 µM)

SMILES: COc1ccc2nc(NC(=O)c3[nH]c(=O)c(CC(C)C)[n+]([O-])c3OC)sc2c1 [Example 8]
- IC50 [1]: 10 µg/mL (≈ 24.7 µM)

SMILES: COc1c(C(=O)Nc2cccc(SC)c2)[nH]c(=O)c(CC(C)C)[n+]1[O-] [Example 3]
- IC50 [1]: 20 µg/mL (≈ 55 µM)

SMILES: COc1c(C(=O)Nc2ccc3c(c2)OCO3)[nH]c(=O)c(CC(C)C)[n+]1[O-] [Example 4]
- IC50 [1]: 56 µg/mL (≈ 155 µM)

SMILES: COc1c(C(=O)Nc2nc3ccccc3s2)[nH]c(=O)c(CC(C)C)[n+]1[O-] [Example 7]
- IC50 [1]: 18 µg/mL (≈ 48.1 µM)
- IC50 [2]: 16 µg/mL

SMILES: COc1cccc(NC(=O)c2[nH]c(=O)c(CC(C)C)[n+]([O-])c2OC)c1 [Example 2]
- IC50 [1]: 40 µg/mL (≈ 115 µM)

SMILES: COc1c(C(=O)Nc2ccccc2-c2ccccc2)[nH]c(=O)c(CC(C)C)[n+]1[O-] [Example 6]
- IC50 [1]: 3 µg/mL (≈ 7.62 µM)
- IC50 [2]: 20 µg/mL

SMILES: COc1c(C(=O)Nc2cc(C(C)(C)C)c(O)c(C(C)(C)C)c2)[nH]c(=O)c(CC(C)C)[n+]1[O-] [Example 5]
- IC50 [1]: 17 µg/mL (≈ 38.2 µM)
- IC50 [3]: 60 µg/mL (≈ 135 µM)
